The values below come from US20220184231A1, “CLOSED-ENDED DNA (CEDNA) AND IMMUNE MODULATING COMPOUNDS” (Generation Bio Co., priority 2019, published 2022).

Common to all, as to format: in vivo
In test [1] the test system is luciferase transgene expression from ceDNA vector. In words: In-life IVIS imaging of luciferase expression from ceDNA vector. The conditions noted are these: male CD-1 mice, LNP-ceDNA 0.5 mg/kg i.v., day 4 and day 7, compared with ceDNA/polyC group. On the procedure:
A ceDNA vector encoding luciferase as the transgene (e.g., SEQ ID NO: 56), with a wild-type AAV2 left ITR and a mutant right ITR and a hAAT promoter, methylated to eliminate free CpG, was used. The ceDNA vector was prepared as described above. […] Four replicates were included in each sample group. Body weights were recorded on days 0, 1, 2, 3, 7, 14, 21 and 28. In-life imaging was performed on days 4, 7, 14, 21, and 28 using an in vivo imaging system (IVIS). For the imaging, each mouse was injected with luciferin at 150 mg/kg via intraperitoneal injection at 2.5 mL/kg. After 15 minutes, each mouse was anaesthetized and imaged.

For another test, the system named is TNF-alpha. In words: Cytokine analysis of serum samples after administration: TNF-alpha. The conditions noted are these: male CD-1 mice, LNP-ceDNA 0.5 mg/kg i.v.; relative to ceDNA treatment alone. An excerpt:
(§1) FIGS. 6A, 6B and 6C provide graphs showing data from the experiments described in Example 6.

In the next test the test system is cytokines. Description: Cytokine analysis of serum samples after administration: other cytokines. The conditions noted are these: male CD-1 mice, LNP-ceDNA 0.5 mg/kg i.v.; cytokines other than IL-6, TNF-alpha, RANTES.
Source text: as §1

Another test has as its system IL-6. Description: Cytokine analysis of serum samples after administration: IL-6. The conditions noted are these: male CD-1 mice, LNP-ceDNA 0.5 mg/kg i.v.; relative to ceDNA treatment alone.
Source text: as §1

In another test the test system is RANTES. Description: Cytokine analysis of serum samples after administration: RANTES. To be noted: male CD-1 mice, LNP-ceDNA 0.5 mg/kg i.v.; relative to ceDNA treatment alone.
Source text: as §1

Entries after “also recorded” stand apart in the source; their conditions may differ.

On to dexamethasone palmitate, for which the “total flux (luciferase expression from the ceDNA vector)” value in test [1] is “no impact”. In addition, the “induction of TNF-alpha (serum level)” value with TNF-alpha is “significantly less induction; also recorded: significantly reduced”. For the same substance, the “levels of other cytokines (serum)” value in the test on cytokines is given as “not impacting”. Moreover, in the test on IL-6, the “induction of IL-6 (serum level)” value was “significantly less induction; also recorded: significantly reduced”. The “induction of RANTES (serum level)” value with RANTES is on record as “significantly less induction; also recorded: significantly reduced”.
